This is an account of results in PubChem BioAssay (NCI).

Test systems include MOLT-4 leukemia; SF-295 CNS; SK-MEL-28 melanoma; SF-539 CNS; SNB-19 CNS; RPMI-8226 leukemia; MALME-3M melanoma; A498 renal; PC-3 prostate.
Common to all, as to experiment: inhibition of tumour cell growth, NCI panel, 48 h

Several values for one entry are separate records, joined by “and”; a condition that tells them apart may be missing. Equal entries are not always repeated.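 These data come from cells grown in 96-well plates and exposed to compound for 48 hours at five concentrations. GI50: concentration for 50% inhibition of growth. TGI marks complete inhibition of growth.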

For `CCOC(=O)C(N)C[S][Sn]([CH3])([CH3])[Cl]` (stereo unspecified), the GI50 in the assay with MOLT-4 leukemia was over 65.2 µM; in the assay with SF-295 CNS, over 100 µM; with SK-MEL-28 melanoma it was over 100 µM; in the assay with SF-539 CNS, over 100 µM; in the assay on SNB-19 CNS, over 100 µM; with RPMI-8226 leukemia, over 84.9 µM. For the same molecule, the GI50 in the assay on MALME-3M melanoma is over 100 µM. Also, the TGI in the assay with MOLT-4 leukemia, in the assay with SF-295 CNS, in the assay with SK-MEL-28 melanoma, in the assay with SF-539 CNS, in the assay on SNB-19 CNS and in the assay on RPMI-8226 leukemia was over 100 µM in each case. In the assay on MALME-3M melanoma, this molecule returned a TGI of over 100 µM.

As to `CC[C@@H]1OC2(C)CC(S(=O)(=O)c3ccccc3O)CC1O2` (stereo partly specified), the TGI with MOLT-4 leukemia, with SF-295 CNS, with SK-MEL-28 melanoma, in the assay on SF-539 CNS, in the assay with SNB-19 CNS and in the assay on RPMI-8226 leukemia was over 100 µM each time. Also, in the assay with MALME-3M melanoma, the TGI was over 100 µM.

For the molecule `Cc1[nH]c2ccccc2c1C1Cc2ccccc2N1C(=O)/C=C\C(=O)O` (stereo unspecified), the TGI is over 100 µM in the assay on A498 renal; over 100 µM in the assay on MOLT-4 leukemia; 99.4 µM with SF-295 CNS; 75.2 µM in the assay on SF-539 CNS; 68.6 µM in the assay on SNB-19 CNS; over 100 µM in the assay with MALME-3M melanoma.

For the molecule `COc1ccccc1N1C(=O)/C(=C/c2ccc(N(CCC#N)CCC#N)cc2C)N=C1c1cc([N+](=O)[O-])ccc1Cl`, the TGI with A498 renal, in the assay with MOLT-4 leukemia, in the assay with SF-295 CNS, in the assay with SK-MEL-28 melanoma, in the assay with SF-539 CNS and in the assay with SNB-19 CNS was over 100 µM in each case. Also, the TGI in the assay with RPMI-8226 leukemia and with MALME-3M melanoma was over 100 µM throughout.

As to `Cn1ccnc1CC(C)(O)c1ccccc1` (stereo unspecified), the TGI in the assay on A498 renal, in the assay on SF-295 CNS, with SK-MEL-28 melanoma, in the assay on SF-539 CNS, in the assay on SNB-19 CNS and in the assay with RPMI-8226 leukemia was over 100 µM throughout. For the same molecule, the TGI with MALME-3M melanoma and with PC-3 prostate was over 100 µM each time.

Regarding `C[C@]12C[C@H](c3ccccc3)Nc3ccccc3N1C(c1ccccc1)=NO2`, the TGI is over 100 µM in the assay with A498 renal; 78.8 µM in the assay with MOLT-4 leukemia; over 100 µM with SF-295 CNS; over 100 µM in the assay on SF-539 CNS; over 100 µM in the assay with SNB-19 CNS; over 100 µM in the assay on RPMI-8226 leukemia. In addition, the TGI in the assay on MALME-3M melanoma and in the assay with PC-3 prostate was over 100 µM in each case.

Take `CC(C)CS(=O)(=O)/C(=C(\c1ccc(Br)cc1)S(=O)(=O)CC(C)C)c1ccc(Br)cc1`: the TGI was 31.6 µM with A498 renal; over 100 µM in the assay on MOLT-4 leukemia; over 100 µM in the assay with SF-295 CNS; over 100 µM in the assay on SK-MEL-28 melanoma; over 100 µM in the assay on SF-539 CNS; over 100 µM in the assay on SNB-19 CNS. Moreover, the TGI in the assay with RPMI-8226 leukemia and in the assay with MALME-3M melanoma was over 100 µM throughout.

As to `COc1ccc([N+]2=NC(c3ccc([N+](=O)[O-])cc3)=NN(c3ccccc3)C2)cc1`, the TGI with A498 renal was over 100 µM; with MOLT-4 leukemia, 74.4 µM and > 100 µM; in the assay with SF-295 CNS, over 100 µM; with SK-MEL-28 melanoma, over 100 µM; in the assay on SNB-19 CNS it was over 100 µM; with RPMI-8226 leukemia, 80 µM and > 100 µM. In the assay with MALME-3M melanoma, this molecule returned a TGI of over 100 µM.

For the molecule `COc1ccc(NC(=O)C(=O)C(C(=O)c2ccccc2)C2OC(=O)c3ccccc32)c([N+](=O)[O-])c1` (stereo unspecified), the TGI with A498 renal, in the assay on MOLT-4 leukemia, in the assay with SF-295 CNS, in the assay with SK-MEL-28 melanoma, with SF-539 CNS and in the assay with SNB-19 CNS was over 100 µM in each case. Besides, the TGI with RPMI-8226 leukemia and in the assay on MALME-3M melanoma was over 100 µM throughout.

With `NC(=O)C(=Cc1ccc(C(O)P(=O)(O)O)cc1)C(N)=O` (stereo unspecified), the TGI with A498 renal, in the assay with MOLT-4 leukemia, in the assay with SF-295 CNS, with SK-MEL-28 melanoma, in the assay on SF-539 CNS and in the assay on SNB-19 CNS was over 100 µM in each case. In addition, the TGI in the assay with RPMI-8226 leukemia and with MALME-3M melanoma was over 100 µM in each case.

Regarding `COc1cc(OC)c(/C=C/S(=O)(=O)Cc2cnc(OC)c(N)c2)c(OC)c1`, the GI50 in the assay with A498 renal is under 0.01 µM; in the assay on MOLT-4 leukemia it was under 0.0218 µM; with SF-295 CNS it was under 0.0133 µM; in the assay with SK-MEL-28 melanoma, 20.4 µM; in the assay with SNB-19 CNS, under 0.0223 µM; in the assay with RPMI-8226 leukemia it was under 0.0206 µM. The GI50 with MALME-3M melanoma is over 100 µM; with PC-3 prostate it was under 0.0187 µM. For the same molecule, the TGI in the assay on A498 renal, in the assay with MOLT-4 leukemia, in the assay on SF-295 CNS, in the assay with SK-MEL-28 melanoma, in the assay with SNB-19 CNS and with RPMI-8226 leukemia was over 100 µM throughout. For the same molecule, the TGI in the assay on MALME-3M melanoma and in the assay with PC-3 prostate was over 100 µM throughout.

For the molecule `CCCCc1c2c(nc3c1CCC/C3=C\c1ccccc1)C(=O)CCC2`, the TGI came out at 61.4 µM in the assay on A498 renal; 43.4 µM with MOLT-4 leukemia; 40.3 µM in the assay with SF-295 CNS; 41.8 µM with SK-MEL-28 melanoma; 33.2 µM in the assay on SF-539 CNS; 44.2 µM in the assay on SNB-19 CNS. For the same molecule, the TGI was found to be 45.4 µM in the assay on RPMI-8226 leukemia and 52 µM in the assay on MALME-3M melanoma.

For `COC(=O)c1s/c(=N\C(=S)N(C)C)n(-c2ccccc2)c1C(=O)OC`, the TGI in the assay on A498 renal, in the assay with MOLT-4 leukemia, in the assay with SF-295 CNS, with SK-MEL-28 melanoma, with SF-539 CNS and with SNB-19 CNS was over 100 µM each time. Also, the TGI in the assay with RPMI-8226 leukemia and in the assay on MALME-3M melanoma was over 100 µM throughout.

Take `COc1ccc(-c2onc(-c3ccc([N+](=O)[O-])cc3)c2C2=NCCN2)cc1`: the TGI with MOLT-4 leukemia, in the assay with SF-295 CNS, in the assay with SK-MEL-28 melanoma, in the assay with SF-539 CNS, with SNB-19 CNS and in the assay on RPMI-8226 leukemia was over 100 µM in each case. In the assay with MALME-3M melanoma, the TGI was over 100 µM.
